Entries after “also recorded” stand apart in the source; their conditions may differ. Non-standard residues stand in square brackets, D forms with d. Residues, ends and D or L forms follow the SMILES beside them. Sar = CNCC(=O)O
Key:
PEPT-1 [1] = target: T1, PEPT-1 (Homo sapiens, UniProt P46059); assay: Inhibition of PEPT-1 mediated Gly-Sar uptake in Caco-2 cells (UPLC-MS/MS quantification of intracellular Gly-Sar); assay type: cell-based; conditions: for IC50: 7 d differentiation, 37 °C, pH = 6.0, three independent experiments; for Ki: converted from IC50 with the IC50-to-Ki tool, assuming competitive inhibition and a Km of 860 µM for Gly-Sar, read-out: calculated Ki
T1 construct: allowed to differentiate for at least 7 d to ensure sufficient PEPT-1 expression; host or cells: Caco-2
T1 sequence (P46059 1-708): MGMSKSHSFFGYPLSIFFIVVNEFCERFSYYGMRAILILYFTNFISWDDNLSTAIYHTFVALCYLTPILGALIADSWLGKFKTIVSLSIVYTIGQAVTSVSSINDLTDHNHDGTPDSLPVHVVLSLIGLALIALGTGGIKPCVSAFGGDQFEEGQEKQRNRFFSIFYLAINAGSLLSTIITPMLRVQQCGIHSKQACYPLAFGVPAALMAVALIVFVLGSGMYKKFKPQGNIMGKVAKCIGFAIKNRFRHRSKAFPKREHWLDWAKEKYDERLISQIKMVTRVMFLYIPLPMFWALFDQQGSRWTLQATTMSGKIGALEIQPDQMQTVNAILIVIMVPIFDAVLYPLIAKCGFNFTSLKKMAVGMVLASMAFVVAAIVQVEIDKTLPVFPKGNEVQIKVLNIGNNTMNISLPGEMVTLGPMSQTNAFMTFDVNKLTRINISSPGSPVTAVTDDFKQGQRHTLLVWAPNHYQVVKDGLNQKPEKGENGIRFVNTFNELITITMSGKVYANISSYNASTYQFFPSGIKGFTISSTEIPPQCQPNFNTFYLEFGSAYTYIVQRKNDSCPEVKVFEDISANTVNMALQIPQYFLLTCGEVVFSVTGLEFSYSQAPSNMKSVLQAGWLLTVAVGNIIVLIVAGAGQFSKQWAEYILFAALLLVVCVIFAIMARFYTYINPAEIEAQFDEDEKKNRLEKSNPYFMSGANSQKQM
Description: Caco-2 cells were cultivated in DMEM supplemented with 10% FBS, glutamine (2 mM), penicillin (100 U/mL), streptomycin (100 µg/mL), and 1% NEAS. They were kept at 37 °C and 5% CO2 and passaged once a week. For validation and uptake experiments, cells were seeded in 96-well plates at a density of 6.25 × 10^4 cells/cm^2 and allowed to differentiate for at least 7 d to ensure sufficient PEPT-1 expression. The uptake buffer (MES) was prepared as previously described by Sun et al. and contained 50 mM MES, 136.9 mM NaCl, 5.4 mM KCl, 1.26 mM CaCl2, 0.81 mM MgSO4 × 7 H2O, 0.5 mM Na2HPO4, 0.44 mM KH2PO4, 0.42 mM NaHCO3, and 5.54 mM glucose. The pH value of the uptake buffer was adjusted to pH = 6.0 using either HCl or NaOH solutions. Gly-Sar uptake was tested after 7, 24, and 28 d of Caco-2 cell differentiation. […] After an incubation period of 10 min at 37 °C under gentle agitation, transport was terminated by removing the solution and washing the cells with ice-cold MES buffer (100 µL/well) thrice while the plate was kept on ice. Afterwards, cells were lysed in the 96-well cell culture plate with aqueous NH4OH (10%, 50 µL/well) and sample preparation was performed as described below.
Sample preparation was performed directly in the 96-well cell culture plates. Cell lysates (50 µL) were spiked with 25 µL IS spike solution and, depending on the sample type, with either 5 µL of the respective calibration or QC solution (calibration and QC samples) or with 5 µL H2O/ACN (95/5, v/v) + 0.1% FA for volume compensation (study samples). Subsequently, all samples were filled with 180 µL ACN + 0.1% FA for protein precipitation and centrifuged for 10 min at 800 g. Finally, the 96-well plates were transferred into the Sample Manager for direct injection onto the UPLC-MS/MS system.
The quantification of Gly-Sar in cell homogenates was performed on a UPLC-MS/MS system consisting of a triple-stage quadrupole mass spectrometer (Waters Xevo TQ-XS with Z-spray ESI source) and an Acquity Classic UPLC® (Waters, Milford, MA, USA). Chromatographic separation was achieved on a Waters Cortecs UPLC® HILIC column (90 Å, 1.6 µm, 2.1 × 50 mm) heated to 60 °C with the injection volume set to 10 µL and a flow rate of 0.4 mL/min. The mobile phase consisted of H2O/ACN (95/5, v/v) + 0.1% FA (aqueous eluent; A) and ACN + 0.1% FA (ACN eluent; B). Gly-Sar was eluted with an isocratic composition of 16% A/84% B for 3 min. Subsequently, the conditions were changed to 50% A/50% B within 0.5 min and maintained for 0.5 min to flush the column. Afterwards, the initial ratio of 16% A and 84% B was restored during 0.5 min. The mass spectrometer was operated using an electrospray ionization (ESI) source in the positive ion detection mode. Quantification of Gly-Sar and IS was performed by selected reaction monitoring (SRM) using argon collision gas for collision-induced dissociation (CID). Mass spectrometric parameters were optimized for the detection of Gly-Sar and the IS using the auto-optimization feature IntelliStart of the MassLynx V4.2 system software (Waters, Milford, MA, USA).
Calibration curves were fitted by the Waters TargetLynx V4.2 software (Waters, Milford, MA, USA) using 1/x^2-weighted linear regressions of the peak area ratios of Gly-Sar and the IS. General calculations were performed using Microsoft Excel 2010 ([…]). IC50 values (i.e., the inhibitor concentration, which causes a baseline-normalized half-maximal Gly-Sar uptake) were calculated using the GraphPad Prism 9 software (version 9.1.0; GraphPad Software Inc., La Jolla, CA, USA). Intracellular Gly-Sar concentrations at varying inhibitor concentrations were fitted with nonlinear regression to a four-parameter concentration–response curve (4PL) according to the equation: […]

PEPT-1 [2] = conditions: read-out: reported Ki; cited from earlier work
PEPT-1 [3] = target: T1, PEPT-1; parameters: method as in PMID 22490229; conditions: cited from earlier work
[4] = Stability of Gly-Sar in processed cell lysate and spike solutions; assay type: physicochemical
Description: The assay to quantify Gly-Sar in cell homogenates was validated following the EMA and FDA guidelines on bioanalytical method validation. For this purpose, the linearity, accuracy, precision, selectivity, stability, recovery, and matrix effect of the assay were determined in three validation batches, which included eight calibration samples in duplicates and 24 QC samples at four concentrations (LLOQ, low, mid, and high QC) in sixfold determination. Accuracy (%) is the degree of agreement between the determined value and known true value and was subsequently determined by dividing the quantified mean concentration by the nominal concentration. Precision (% CV) describes the degree of agreement between individual measurements of the same analyte and was calculated by dividing the standard deviation by the quantified mean of the measurements. Chromatograms of blank cell lysate samples from six different cell passage numbers and of corresponding spiked samples were assessed for interfering signals at the retention time of Gly-Sar and IS to determine the selectivity of the method. […] Recovery was evaluated for low, mid, and high QC concentration of Gly-Sar by the comparison of peak areas of QC samples spiked after extraction with the respective peak areas of […] spiked after extraction. […] Gly-Sar integrity was further evaluated in the spike solutions. […]

[5] = Caco-2 cells, 20 µM Gly-Sar, 10 min

Structure (SMILES)	IC50 (PEPT-1 [1]; [5]) [µM]	Ki (PEPT-1 [1]) [µM]	Ki (PEPT-1 [2]) [µM]	other results
NCC(=O)N1CCC[C@H]1C(=O)O [Gly-Pro, glycyl-proline] (H-Gly-Pro-OH)	257 ± 28	250	300	–
CN(CC(=O)O)C(=O)CN [Gly-Sar, glycyl-sarcosine] (H-Gly-[Sar]-OH)	–	–	–	fraction of Gly-Sar uptake that is PEPT-1 mediated (PEPT-1 [1]; Caco-2 cells, 10 min incubation): around 86%; ratio of bottom to top of the fitted sigmoidal curves (non-inhibited, non-PEPT-1 specific Gly-Sar uptake) (PEPT-1 [1]; mean over all measured IC50 determinations, Caco-2 cells): 14.0 ± 6.7%; Km (PEPT-1 [3]): 860 µM; deviation of peak areas from the initial values ([4]; samples stored in the autosampler, over 24 h): < 15%; time stable in spike solutions ([4]; spike solutions in H2O/ACN (95/5, v/v) + 0.1% FA): at least 9 months
Nc1nc2c(ncn2COCCO)c(=O)[nH]1 [aciclovir]	–	–	–	inhibition of Gly-Sar uptake (in words) (PEPT-1 [1]; Caco-2 cells, 20 µM Gly-Sar, 10 min, pH = 6.0, 0.1–5000 µM inhibitor): no inhibition; also recorded: did not interfere with Gly-Sar uptake; also recorded: did no inhibit the Gly-Sar uptake
CCCCc1nc(Cl)c(CO)n1Cc1ccc(-c2ccccc2-c2nn[nH]n2)cc1 [losartan]	45.1 ± 15.8	44	24	–
CC(C)[C@H](N)C(=O)OCCOCn1cnc2c(=O)[nH]c(N)nc21 [valaciclovir]	894 ± 309	874	740	–
